PubChem BioAssay (NCI)
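GI50: concentration for 50% inhibition of growth. The concentration for full growth arrest is given as TGI.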

Key:
Assay in all cases: inhibition of tumour cell growth, NCI panel, 384-well format
SW-620 colon = system: SW-620 colon
HCT-116 colon = system: HCT-116 colon
NCI-H522 lung = system: NCI-H522 lung
SF-268 CNS = system: SF-268 CNS
HT29 colon = system: HT29 colon
CAKI-1 renal = system: CAKI-1 renal
MCF7 breast = system: MCF7 breast
OVCAR-4 ovarian = system: OVCAR-4 ovarian
CCRF-CEM leukemia = system: CCRF-CEM leukemia
A549 NSCLC = system: A549 NSCLC
ACHN renal = system: ACHN renal
SR leukemia = system: SR leukemia
SNB-75 CNS = system: SNB-75 CNS
PC-3 prostate = system: PC-3 prostate
NCI-H460 NSCLC = system: NCI-H460 NSCLC
EKVX NSCLC = system: EKVX NSCLC
COLO 205 colon = system: COLO 205 colon
T-47D breast = system: T-47D breast
SK-OV-3 ovarian = system: SK-OV-3 ovarian
TK-10 renal = system: TK-10 renal
NCI/ADR-RES ovarian = system: NCI/ADR-RES ovarian
UACC-62 melanoma = system: UACC-62 melanoma
A498 renal = system: A498 renal
K-562 leukemia = system: K-562 leukemia
SK-MEL-5 melanoma = system: SK-MEL-5 melanoma
MALME-3M melanoma = system: MALME-3M melanoma
HS 578T breast = system: HS 578T breast
786-0 renal = system: 786-0 renal
RXF 393 renal = system: RXF 393 renal
HL-60(TB) leukemia = system: HL-60(TB) leukemia
IGROV1 ovarian = system: IGROV1 ovarian
NCI-H226 lung = system: NCI-H226 lung
KM12 colon = system: KM12 colon
HCC-2998 colon = system: HCC-2998 colon
UO-31 renal = system: UO-31 renal
SNB-19 CNS = system: SNB-19 CNS
LOX IMVI melanoma = system: LOX IMVI melanoma
OVCAR-5 ovarian = system: OVCAR-5 ovarian
SN12C renal = system: SN12C renal
NCI-H322M lung = system: NCI-H322M lung
RPMI-8226 leukemia = system: RPMI-8226 leukemia
HCT-15 colon = system: HCT-15 colon
MOLT-4 leukemia = system: MOLT-4 leukemia
U251 glioblastoma = system: U251 glioblastoma
SK-MEL-2 melanoma = system: SK-MEL-2 melanoma
SF-539 CNS = system: SF-539 CNS
SF-295 CNS = system: SF-295 CNS
NCI-H23 lung = system: NCI-H23 lung

With `Cn1c(Nc2ccc(C(F)(F)F)cc2)nc2cc(Oc3ccnc(-c4ncc(C(F)(F)F)[nH]4)c3)ccc21` the GI50 (SW-620 colon) was 0.873 µM, the TGI (SW-620 colon) was 12.5 µM and the GI50 (HCT-116 colon) was 0.0625 µM. The TGI (HCT-116 colon) was 3.55 µM, the GI50 (NCI-H522 lung) was 0.0556 µM and the TGI (NCI-H522 lung) was 11 µM. It also gave a GI50 (SF-268 CNS) of 0.387 µM, a TGI (SF-268 CNS) of 13.3 µM and a GI50 (HT29 colon) of 0.396 µM. For the same compound, the TGI (HT29 colon) was 13.7 µM, the GI50 (CAKI-1 renal) was 0.0157 µM and the TGI (CAKI-1 renal) was 12.4 µM. For the same compound, the GI50 (MCF7 breast) was 1.59 µM, the TGI (MCF7 breast) was 6.67 µM and the GI50 (OVCAR-4 ovarian) was 0.454 µM. For the same compound, the TGI (OVCAR-4 ovarian) was 11.7 µM, the GI50 (CCRF-CEM leukemia) was 0.231 µM and the TGI (CCRF-CEM leukemia) was 1.17 µM. The GI50 (A549 NSCLC) was 0.254 µM, the TGI (A549 NSCLC) was 12.4 µM and the GI50 (ACHN renal) was 0.0205 µM. For the same compound, the TGI (ACHN renal) was 11.3 µM, the GI50 (SR leukemia) was 0.27 µM and the TGI (SR leukemia) was 2.11 µM. The GI50 (SNB-75 CNS) was 0.0711 µM, the TGI (SNB-75 CNS) was 13 µM and the GI50 (PC-3 prostate) was 0.833 µM. The TGI (PC-3 prostate) was 12.3 µM, the GI50 (NCI-H460 NSCLC) was 0.237 µM and the TGI (NCI-H460 NSCLC) was 10.3 µM. It also gave a GI50 (EKVX NSCLC) of 0.983 µM, a TGI (EKVX NSCLC) of 4.91 µM and a GI50 (COLO 205 colon) of 0.122 µM. It also gave a TGI (COLO 205 colon) of 1.42 µM, a GI50 (T-47D breast) of 0.274 µM and a TGI (T-47D breast) of 9.06 µM. The GI50 (SK-OV-3 ovarian) was 0.0127 µM, the TGI (SK-OV-3 ovarian) was 12.5 µM and the GI50 (TK-10 renal) was 0.0896 µM. It also gave a TGI (TK-10 renal) of 11.8 µM, a GI50 (NCI/ADR-RES ovarian) of 0.567 µM and a TGI (NCI/ADR-RES ovarian) of 2.84 µM. It also gave a GI50 (UACC-62 melanoma) of 0.027 µM, a TGI (UACC-62 melanoma) of 0.462 µM and a TGI (A498 renal) of 12.9 µM. For the same compound, the GI50 (K-562 leukemia) was 0.63 µM, the TGI (K-562 leukemia) was 2.13 µM and the GI50 (SK-MEL-5 melanoma) was 0.0704 µM. The TGI (SK-MEL-5 melanoma) was 0.617 µM, the GI50 (MALME-3M melanoma) was 0.0144 µM and the TGI (MALME-3M melanoma) was 0.0443 µM. The GI50 (HS 578T breast) was 0.0391 µM, the TGI (HS 578T breast) was 6.25 µM and the GI50 ([…]-0 renal) was 0.615 µM. For the same compound, the TGI (786-0 renal) was 6.25 µM, the GI50 (RXF 393 renal) was 0.0159 µM and the TGI (RXF 393 renal) was 0.348 µM. The GI50 (HL-60(TB) leukemia) was 0.0386 µM, the TGI (HL-60(TB) leukemia) was 1.07 µM and the GI50 (IGROV1 ovarian) was 0.041 µM. The TGI (IGROV1 ovarian) was 11.2 µM, the GI50 (NCI-H226 lung) was 1.5 µM and the TGI (NCI-H226 lung) was 19.2 µM. For the same compound, the GI50 (KM12 colon) was 0.734 µM, the TGI (KM12 colon) was 12.5 µM and the GI50 (HCC-2998 colon) was 0.0883 µM. For the same compound, the TGI (HCC-2998 colon) was 5.62 µM, the GI50 (UO-31 renal) was 0.332 µM and the TGI (UO-31 renal) was 12.6 µM. For the same compound, the GI50 (SNB-19 CNS) was 0.359 µM, the TGI (SNB-19 CNS) was 19.8 µM and the GI50 (LOX IMVI melanoma) was 0.0547 µM. For the same compound, the TGI (LOX IMVI melanoma) was 1.54 µM, the GI50 (OVCAR-5 ovarian) was 1.43 µM and the TGI (OVCAR-5 ovarian) was 13.1 µM. The GI50 (SN12C renal) was 0.0464 µM, the TGI (SN12C renal) was 11.8 µM and the GI50 (NCI-H322M lung) was 0.106 µM. It also gave a TGI (NCI-H322M lung) of 12.6 µM, a GI50 (RPMI-8226 leukemia) of 0.232 µM and a TGI (RPMI-8226 leukemia) of 2.09 µM. For the same compound, the GI50 (HCT-15 colon) was 0.0537 µM, the TGI (HCT-15 colon) was 10.3 µM and the GI50 (MOLT-4 leukemia) was 0.0553 µM. It also gave a TGI (MOLT-4 leukemia) of 0.197 µM, a GI50 (U251 glioblastoma) of 0.0979 µM and a TGI (U251 glioblastoma) of 12.7 µM. It also gave a GI50 (SK-MEL-2 melanoma) of 0.0238 µM, a TGI (SK-MEL-2 melanoma) of 0.101 µM and a GI50 (SF-539 CNS) of 0.346 µM. It also gave a TGI (SF-539 CNS) of 7.74 µM, a GI50 (SF-295 CNS) of 0.249 µM and a TGI (SF-295 CNS) of 5.66 µM. The GI50 (NCI-H23 lung) was 0.179 µM and the TGI (NCI-H23 lung) was 2.33 µM.

With `CN1CC[C@@H](c2c(O)cc(O)c3c(=O)cc(-c4ccc(C(F)(F)F)cc4Cl)oc23)[C@@H]1CO` the GI50 (SW-620 colon) was 17.5 µM, the TGI (SW-620 colon) was 31.6 µM and the GI50 (HCT-116 colon) was 12.4 µM. The TGI (HCT-116 colon) was 25.4 µM, the GI50 (NCI-H522 lung) was 14 µM and the TGI (NCI-H522 lung) was 27.1 µM. The GI50 (SF-268 CNS) was 15.1 µM, the TGI (SF-268 CNS) was 28.5 µM and the GI50 (HT29 colon) was 17.6 µM. The TGI (HT29 colon) was 31.8 µM, the GI50 (CAKI-1 renal) was 4.61 µM and the TGI (CAKI-1 renal) was 13.1 µM. For the same compound, the GI50 (MCF7 breast) was 14.7 µM, the TGI (MCF7 breast) was 28.2 µM and the GI50 (OVCAR-4 ovarian) was 15.4 µM. The TGI (OVCAR-4 ovarian) was 29.6 µM, the GI50 (CCRF-CEM leukemia) was 13.8 µM and the TGI (CCRF-CEM leukemia) was 26.8 µM. The GI50 (A549 NSCLC) was 16.7 µM, the TGI (A549 NSCLC) was 31.7 µM and the GI50 (ACHN renal) was 12.6 µM. For the same compound, the TGI (ACHN renal) was 25.7 µM, the GI50 (SR leukemia) was 1.88 µM and the TGI (SR leukemia) was 5.32 µM. It also gave a GI50 (SNB-75 CNS) of 12.6 µM, a TGI (SNB-75 CNS) of 25.2 µM and a GI50 (PC-3 prostate) of 14.6 µM. The TGI (PC-3 prostate) was 28.4 µM, the GI50 (NCI-H460 NSCLC) was 14.5 µM and the TGI (NCI-H460 NSCLC) was 28 µM. It also gave a GI50 (EKVX NSCLC) of 13.8 µM, a TGI (EKVX NSCLC) of 27.1 µM and a GI50 (COLO 205 colon) of 18.4 µM. It also gave a TGI (COLO 205 colon) of 32.6 µM, a GI50 (T-47D breast) of 13.8 µM and a TGI (T-47D breast) of 26.8 µM. It also gave a GI50 (SK-OV-3 ovarian) of 16.3 µM, a TGI (SK-OV-3 ovarian) of 31.1 µM and a GI50 (TK-10 renal) of 14.2 µM. The TGI (TK-10 renal) was 32.3 µM, the GI50 (NCI/ADR-RES ovarian) was 17.7 µM and the TGI (NCI/ADR-RES ovarian) was 35.9 µM. The GI50 (UACC-62 melanoma) was 9.36 µM, the TGI (UACC-62 melanoma) was 21.7 µM and the GI50 (A498 renal) was 11.8 µM. The TGI (A498 renal) was 24.2 µM, the GI50 (K-562 leukemia) was 13.9 µM and the TGI (K-562 leukemia) was 27.3 µM. The GI50 (SK-MEL-5 melanoma) was 16.7 µM, the TGI (SK-MEL-5 melanoma) was 30.4 µM and the GI50 (MALME-3M melanoma) was 12.2 µM. It also gave a TGI (MALME-3M melanoma) of 24.6 µM, a GI50 (HS 578T breast) of 13.4 µM and a TGI (HS 578T breast) of 26.3 µM. The GI50 ([…]-0 renal) was 13.6 µM, the TGI (786-0 renal) was 26.7 µM and the GI50 (RXF 393 renal) was 12.3 µM. The TGI (RXF 393 renal) was 24.8 µM, the GI50 (HL-60(TB) leukemia) was 9.56 µM and the TGI (HL-60(TB) leukemia) was 21.9 µM. It also gave a GI50 (IGROV1 ovarian) of 12 µM, a TGI (IGROV1 ovarian) of 25.7 µM and a GI50 (NCI-H226 lung) of 12.1 µM. The TGI (NCI-H226 lung) was 26.8 µM, the GI50 (KM12 colon) was 13.1 µM and the TGI (KM12 colon) was 26 µM. The GI50 (HCC-2998 colon) was 13.2 µM, the TGI (HCC-2998 colon) was 26.2 µM and the GI50 (UO-31 renal) was 10.8 µM. It also gave a TGI (UO-31 renal) of 23.2 µM, a GI50 (SNB-19 CNS) of 18.7 µM and a TGI (SNB-19 CNS) of 33.9 µM. It also gave a GI50 (LOX IMVI melanoma) of 14 µM, a TGI (LOX IMVI melanoma) of 27.1 µM and a GI50 (OVCAR-5 ovarian) of 16.5 µM. It also gave a TGI (OVCAR-5 ovarian) of 37.3 µM, a GI50 (SN12C renal) of 13.7 µM and a TGI (SN12C renal) of 26.7 µM. For the same compound, the GI50 (NCI-H322M lung) was 15.5 µM, the TGI (NCI-H322M lung) was 29.2 µM and the GI50 (RPMI-8226 leukemia) was 7.71 µM. The TGI (RPMI-8226 leukemia) was 20.3 µM, the GI50 (HCT-15 colon) was 16.1 µM and the TGI (HCT-15 colon) was 30 µM. The GI50 (MOLT-4 leukemia) was 12.7 µM, the TGI (MOLT-4 leukemia) was 25.4 µM and the GI50 (U251 glioblastoma) was 15.5 µM. For the same compound, the TGI (U251 glioblastoma) was 29 µM, the GI50 (SK-MEL-2 melanoma) was 14.5 µM and the TGI (SK-MEL-2 melanoma) was 27.7 µM. The GI50 (SF-539 CNS) was 16.1 µM, the TGI (SF-539 CNS) was 29.8 µM and the GI50 (SF-295 CNS) was 16.7 µM. It also gave a TGI (SF-295 CNS) of 30.8 µM, a GI50 (NCI-H23 lung) of 14.9 µM and a TGI (NCI-H23 lung) of 28.2 µM.
